Source: PMC11184554, “Nature-Inspired Gallinamides Are Potent Antischistosomal Agents: Inhibition of the Cathepsin B1 Protease Target and Binding Mode Analysis” (ACS Infectious Diseases, 2024)
Values joined by “and” are separate entries in the source; they are usually repeats but may differ in a detail not shown here. Equal entries are not always repeated. Where two headings read alike, the source gives them in different places.

How the values were obtained:
[1] = Cytotoxicity, CellTiter Glo 2.0; type: cell-based; settings: human, ± SD; for viability at 72 h, 1 µM: panel A, read-out: Cell line viability after 72 h (%); for viability at 24 h, 10 µM / viability at 48 h, 10 µM / viability at 72 h, 10 µM: panel B, read-out: Cell line viability (%) after treatment with 10 µM compound
Method: Table S4. Cytotoxicity of gallinamides.
Cytotoxicity of gallinamide A and compounds 1, 6, and 9 was tested with four human cell lines and expressed as % viability vs. untreated cells. Cells were treated with the indicated compound concentrations for 72 h (A) or with 10 µM compounds for the indicated time (B) and assayed using CellTiter Glo 2.0 (Promega) according to the manufacturer’ s protocol. Cytotoxicity was expressed as percent viability compared to untreated control cells; the standard deviation of the mean of quadruplicate readings is shown. Cell line abbreviations: HL-60, human promyelocytic leukemia; HeLa, human cervical carcinoma; HepG2, human hepatocellular carcinoma; NHDF, normal human dermal fibroblasts.
Cell line viability after 72 h (%)
Cell line HL-60 HeLa HepG2 NHDF
Cell line viability (%) after treatment w ith 10 µM compound

cathepsin C = target: T1, cathepsin C (Schistosoma mansoni, UniProt Q26563); assay: Protease activity in S. mansoni adult extract, Gly–Arg–AMC; type: biochemical; settings: 1 μM gallinamide A, exopeptidase (aminodipeptidase), substrate Gly–Arg–AMC, mean ± SD
T1 construct: from tissue; host or cells: soluble protein extract of mixed sex S. mansoni adults
T1 sequence (Q26563 218-454): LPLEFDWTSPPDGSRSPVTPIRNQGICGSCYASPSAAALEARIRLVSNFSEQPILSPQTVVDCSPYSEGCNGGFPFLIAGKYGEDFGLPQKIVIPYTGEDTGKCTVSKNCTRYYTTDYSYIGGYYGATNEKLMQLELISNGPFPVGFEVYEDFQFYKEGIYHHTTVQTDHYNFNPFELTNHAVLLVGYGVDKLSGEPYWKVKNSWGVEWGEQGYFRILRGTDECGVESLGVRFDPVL
From the text: (§1) We investigated whether gallinamide A inhibits the activity of the major proteases associated with proteolytic digestion in the adult schistosome gut. The digestive protease network includes the cysteine proteases cathepsins B, C, L from clan CA and legumain from clan CD, and an aspartic protease cathepsin D from clan AA.[11],[12] Their respective activities can be measured in protein extracts of S. mansoni using a kinetic assay with specific fluorogenic substrates. In addition, these activities can be attributed to particular proteases based on sensitivity to selective inhibitors[30]−[32] (Table 1). Accordingly, we exposed worm extracts to gallinamide A and analyzed the individual protease activities. Gallinamide A inhibited both the carboxydipeptidase (98%) and endopeptidase activities (94%) of cathepsin B as measured with the respective substrates, Abz–Phe–Arg–Val–Nph[15] and Cbz–Arg–Arg–AMC[33],[34] (Table 1). The activity measured with the Cbz–Phe–Arg–AMC substrate,[11],[13],[16],[33],[35] which can be cleaved by both cathepsins B and L, was inhibited by gallinamide A to a lesser extent (72%). […]
(§2) Proteolytic activities in S. mansoni adult extracts were measured in a continuous kinetic assay using the following peptidyl fluorogenic substrates (Bachem) or internally quenched FRET substrates (IOCB): 50 μM Cbz–Phe–Arg–AMC for cathepsins B and L,[13],[15] […]

cathepsin D = assay: Protease activity in S. mansoni adult extract, FRET substrate; type: biochemical; settings: 1 μM gallinamide A, substrate Abz–Lys–Pro–Ala–Glu–Phe–Nph–Ala–Leu, in the presence of E-64, mean ± SD
From the text: as §1, §2

legumain = assay: Protease activity in S. mansoni adult extract, Cbz–Ala–Ala–Asn–AMC; type: biochemical; settings: 1 μM gallinamide A, substrate Cbz–Ala–Ala–Asn–AMC, in the presence of E-64, mean ± SD
From the text: as §1, §2

cathepsin B = assay: Protease activity in S. mansoni adult extract, cathepsin B substrates (continuous fluorometric assay); type: biochemical; settings: 1 μM gallinamide A, relative to uninhibited control, mean ± SD
From the text: as §1, §2

cathepsins B and L = assay: Protease activity in S. mansoni adult extract, Cbz–Phe–Arg–AMC; type: biochemical; settings: 1 μM gallinamide A, endopeptidase, substrate Cbz–Phe–Arg–AMC, mean ± SD
From the text: as §1, §2

COC1=CC(=O)N(C(=O)/C=C/[C@H](C)NC(=O)[C@H](CC(C)C)NC(=O)[C@H](CC(C)C)OC(=O)[C@H](Cc2ccccc2)N(C)C)[C@H]1Cc1ccccc1 [compound 6]
viability at 72 h, 1 µM ([1]; HL-60, vs untreated cells): 100 ± 5% | viability at 72 h, 1 µM ([1]; HeLa): 93 ± 4% | viability at 72 h, 1 µM ([1]; HepG2): 104 ± 3% | viability at 72 h, 1 µM ([1]; NHDF): 99 ± 3% | viability at 24 h, 10 µM ([1]; HL-60): 31 ± 1% | viability at 48 h, 10 µM ([1]; HL-60): 11 ± 2% | viability at 72 h, 10 µM ([1]; HL-60): 11% | viability at 24 h, 10 µM ([1]; HeLa): 45 ± 1% | viability at 48 h, 10 µM ([1]; HeLa): 13 ± 1% | viability at 72 h, 10 µM ([1]; HeLa): 13 ± 1% | viability at 24 h, 10 µM ([1]; HepG2): 61 ± 1% | viability at 48 h, 10 µM ([1]; HepG2): 14 ± 1% | viability at 72 h, 10 µM ([1]; HepG2): 13 ± 1% | viability at 24 h, 10 µM ([1]; NHDF): 100 ± 2% | viability at 48 h, 10 µM ([1]; NHDF): 35 ± 3% | viability at 72 h, 10 µM ([1]; NHDF): 13 ± 13%

CC[C@H](C)[C@@H](C(=O)O[C@@H](CC(C)C)C(=O)N[C@@H](CC(C)C)C(=O)N[C@@H](C)/C=C/C(=O)N1C(=O)C=C(OC)[C@@H]1C)N(C)C [gallinamide A]
inhibition (%) (cathepsin C): < 10% | inhibition (%) (cathepsin C; listed as Gallinamide A): 2.8 ± 1.9% | inhibition (%) (cathepsin D): < 10% | inhibition (%) (cathepsin D; listed as Gallinamide A): 0.01 ± 1.54% | inhibition (%) (legumain): < 10% | inhibition (%) (legumain; listed as Gallinamide A): 8.2 ± 0.1% | inhibition (%) (cathepsin B; endopeptidase activity, substrate Cbz–Arg–Arg–AMC): 94% and 93.7 ± 0.3% | inhibition (%) (cathepsin B; exopeptidase (carboxydipeptidase) activity, substrate Abz–Phe–Arg–Val–Nph): 98.0 ± 2.2% | viability at 72 h, 1 µM ([1]; HL-60, vs untreated cells): 100 ± 6% | viability at 72 h, 1 µM ([1]; HeLa): 96 ± 4% | viability at 72 h, 1 µM ([1]; HepG2): 96 ± 3% | viability at 72 h, 1 µM ([1]; NHDF): 105 ± 6% | viability at 24 h, 10 µM ([1]; HL-60): 99 ± 5% | viability at 48 h, 10 µM ([1]; HL-60): 77 ± 3% | viability at 72 h, 10 µM ([1]; HL-60): 73 ± 5% | viability at 24 h, 10 µM ([1]; HeLa): 77 ± 4% | viability at 48 h, 10 µM ([1]; HeLa): 73 ± 3% | viability at 72 h, 10 µM ([1]; HeLa): 88 ± 6% | viability at 24 h, 10 µM ([1]; HepG2): 93 ± 6% | viability at 48 h, 10 µM ([1]; HepG2): 98 ± 7% | viability at 72 h, 10 µM ([1]; HepG2): 94 ± 11% | viability at 24 h, 10 µM ([1]; NHDF): 80 ± 2% | viability at 48 h, 10 µM ([1]; NHDF): 89 ± 3% | viability at 72 h, 10 µM ([1]; NHDF): 94 ± 94% | inhibition (%) (cathepsins B and L): 72% | inhibition (%) (cathepsins B and L; listed as Gallinamide A): 71.9 ± 2.0%
